Test results published in article PMC10818380, “Triphenylphosphonium Analogs of Short Peptide Related to Bactenecin 7 and Oncocin 112 as Antimicrobial Agents” (Pharmaceutics, 2024).
Where two headings read alike, the source gives them in different places. Square brackets hold non-standard residues; d marks the D form. Peptide text beside a SMILES is read from it. * marks the point of attachment. X2 = c1ccc([P+](CCCCCCCCCCN*)(c2ccccc2)c2ccccc2)cc1; X1 = c1ccc([P+](CCN*)(c2ccccc2)c2ccccc2)cc1

Experiments:
[1] = system: bacterial translation (E. coli S30 extract); test: In vitro translation inhibition of firefly luciferase mRNA, E. coli S30 extract; format: biochemical; conditions: 30 µM
Method: Briefly, in vitro-transcribed firefly luciferase mRNA (fluc) was translated using the E. coli S30 Extract System for Linear Templates (Promega, Madison, WI, USA). Reaction mixtures (with a 5 μL total volume) supplemented with 0.1 mM of a mixture of all canonical amino acids, 4 U of RiboLock RNase Inhibitor (Thermo Fisher Scientific, Waltham, MA, USA), and 0.1 mM of D-luciferin (Sigma-Aldrich, Burlington, MA, USA) were pre-incubated at RT for 5 min after the addition of the tested compounds at a final concentration of 30 µM. Then, 50 ng of the mRNA was added to each reaction tube, and the mixtures were immediately subjected to continuous chemiluminescence measurements using the VICTOR X5 Multilabel Plate Reader (PerkinElmer, Waltham, MA, USA) at 37 °C for 30 min. The maximal rates of the firefly luciferase (Fluc) accumulation were calculated using the OriginPro 7.5 software. The values were normalized to a positive control (0.3% DMSO, assigned a value of 100%).

[2] = system: E. coli SQ171 ΔtolC (A2059G) and JW5503 (∆tolC) (KanS) ermC; test: Antibacterial activity on agar plates, macrolide-resistant strains; format: cell-based; conditions: Figure 3
Method: Antibiotic activity was also evaluated against the following strains: E. coli JW5503 ΔtolC (KanS) ermC, modified with the plasmid pKH80 [59], providing resistance to erythromycin due to the expression of ErmC methyltransferase; E. coli SQ171 ΔtolC transformed with the pAM552 plasmid; E. coli SQ171 ΔtolC modified with the pAM552 plasmid with A2059G substitution in the 23S rRNA; E. coli JW1052 ΔmdtH; E. coli JW0912 ΔompF; and E. coli JW0368 ΔsbmA [57]. The procedure was performed as described previously in [33]. In short, Petri dishes filled with LB solid medium containing a selective antibiotic and 1.5% agar were covered with the tested strains. After that, 1 µL of 10 mM water solutions of Bac(1–10), Bac(1–10, R/Y), Bac(1–10, R/Y)-Cn-TPP, TPP-C10-Bac(1–10, R/Y), and Onc112, LEV (25 μg/mL) in water, and ERY (5 mg/mL and 50 mg/mL) in DMSO were applied onto the agar plates. After overnight incubation at 37 °C, the plates were scanned using the ChemiDoc^TM Imagining System (Bio-Rad Laboratories, Hercules, CA, USA) in three channels (Cy2, Cy3, and Cy5). The obtained images were processed in the Image Lab^TM software (Version 6.0.1, Bio-Rad).

[3] = system: MCF7; test: cells; format: cell-based, human
Method: (§1) The cytotoxicity of the substances under study was tested using the MTT (3-(4,5-dimethylthiazol-2-yl)-2,5-diphenyltetrazolium bromide) assay with some modifications. The detailed procedure for the MTT assay is given in the Supplementary Materials (Section S5).
(§2) Two thousand five hundred cells per well for the MCF7, HEK293T, and A549 cell lines or 4000 cells per well for the VA13 cell line were plated in 135 µL of DMEM-F12 media with 10% FBS (both Gibco, Waltham, MA, USA) in a 96-well plate and were incubated in a 5% CO2 incubator for the first 16 h, without treatment. Then 15 µL of media-DMSO solutions of the tested substances were added to the cells (the final DMSO concentrations in the media were 1% or less), and the cells were treated for 72 h with 25 nM–50 µM (eight dilutions) of the tested substances (triplicate each). Serial dilutions of DMSO and doxorubicin were used as controls. The MTT reagent (Paneco LLC, Moscow, Russia) was then added to the cells at a final concentration of 0.5 g/L (10× stock solution in PBS was used) and incubated for 2.5 h at 37 °C in the incubator under an atmosphere of 5%
(§3) CO2. The MTT solution was then discarded, and 140 µL of DMSO (PharmaMed LLC, Krasnodar, Russia) was added. The plates were swayed on a shaker (60 rpm) to dissolve the formazan. The absorbance was measured using the VICTOR X5 Multilabel Plate Reader (PerkinElmer, Wa l th a m, MA, USA) at a wavelength of 565 nm (in order to measure formazan concentration). The resu l ts were used to construct a dose-response graph and to estimate IC50 values.
(§4) Figure S11.The dependencies of viability of cells after treatment by tested compounds.
(§5) (1 picture or pasted object on this page, not shown here)

[4] = system: VA13; test: cells; format: cell-based, human
Method: as §1, §2, §3, §4, §5

[5] = system: HEK293T; test: cells; format: cell-based, human; conditions: 72 h
Method: as §1, §2, §3, §4, §5

[6] = system: E. coli JW5503 (∆tolC) (KanS) pDualrep2; test: pDualrep2 double-reporter agar plate test; format: cell-based; conditions: 1 µL of 10 mM solution on agar plate
Method: The “pDualrep2” system was used to evaluate the mechanism of the antimicrobial action of the synthesized compounds. This system is based on the hypersensitive strain E. coli JW5503 (∆tolC) (KanS) transformed with the “pDualrep2” plasmid, which allows one to sort out suppressors of protein synthesis or SOS response inducers. Briefly, 1 µL of 10 mM water solutions of Bac(1–10), Bac(1–10, R/Y), Bac(1–10, R/Y)-Cn-TPP, TPP-C10-Bac(1–10, R/Y), and Onc112 were applied onto the agar plate that already contained a layer of the reporter strain E. coli JW5503 (∆tolC) (KanS) pDualrep2, and then the plate was incubated overnight at 37 °C. The agar plate was scanned using the ChemiDoc^TM Imaging System (Bio-Rad Laboratories, Hercules, CA, USA), containing two channels, “Cy3-blot” (553/574 nm; green pseudocolor) for Turbo Red Fluorescent Protein (TurboRFP) detection and “Cy5-blot” (588/633 nm; red pseudocolor) for Katushka2S fluorescence. […] Levofloxacin (LEV; 50 μg/mL, 1 μL) and erythromycin (ERY; 5 mg/mL, 1 μL) were utilized as positive controls for DNA and protein synthesis inhibitors, respectively.

[7] = system: A549; test: cells
Method: as §1, §2, §3, §4, §5

[8] = MCF7, 72 h, MTT, read-out: IC50 (50% inhibition of viability of cells)
[9] = VA13, 72 h, MTT, read-out: IC50 (50% inhibition of viability of cells)
[10] = HEK293T, MTT, read-out: IC50 (50% inhibition of viability of cells)
[11] = read-out: IC50 (50% inhibition of viability of cells), A549, 72 h, MTT

Row | SMILES | inhibition of bacterial translation of firefly luciferase (Fluc) mRNA [1] | bacterial growth inhibition in macrolide-resistant E. coli strains [2] | IC50 [3, 8] [µM] | IC50 [4, 9] [µM] | IC50 [5, 10] [µM] | inhibitory effect on growth of bacterial cells [6] | reporter induction (Katushka2S red pseudocolor = protein synthesis inhibition) [6] | IC50 [7, 11] [µM] | IC50 ([3]; 72 h) [µM] | IC50 ([4]; 72 h) [µM] | IC50 [5] [µM] | IC50 ([7]; 72 h) [µM]
1 | CC[C@H](C)[C@H](NC(=O)[C@H](CCCNC(=N)N)NC(=O)[C@@H](N)CCCNC(=N)N)C(=O)N[C@@H](CCCNC(=N)N)C(=O)N1CCC[C@H]1C(=O)N[C@@H](CCCNC(=N)N)C(=O)N1CCC[C@H]1C(=O)N1CCC[C@H]1C(=O)N[C@@H](Cc1ccc(O)cc1)C(=O)N[C@@H](CC(C)C)C(=O)NCC[P+](c1ccccc1)(c1ccccc1)c1ccccc1 [Compound 3, Bac(1–10, R/Y)-C2-TPP] (H-RRIRPRPPYL-X1; N-terminus assumed) | almost completely | showed bacterial-growth-inhibiting activity | > 20 | > 50 | > 50 | demonstrated an inhibitory effect on the growth of bacterial cells | red pseudocolor reporter induction was observed | > 50 |  |  |  | 
2 | CC[C@H](C)[C@H](NC(=O)[C@H](CCCNC(=N)N)NC(=O)[C@@H](N)CCCNC(=N)N)C(=O)N[C@@H](CCCNC(=N)N)C(=O)N1CCC[C@H]1C(=O)N[C@@H](CCCNC(=N)N)C(=O)N1CCC[C@H]1C(=O)N1CCC[C@H]1C(=O)N[C@@H](Cc1ccc(O)cc1)C(=O)N[C@@H](CC(C)C)C(=O)NCCCCCCCCCC[P+](c1ccccc1)(c1ccccc1)c1ccccc1 [Compound 4, Bac(1–10, R/Y)-C10-TPP] (H-RRIRPRPPYL-X2; N-terminus assumed) | almost completely | showed bacterial-growth-inhibiting activity | 10 ± 1 | 12 ± 1 | 3.1 ± 0.5 | demonstrated an inhibitory effect on the growth of bacterial cells | red pseudocolor reporter induction was observed | 9.2 ± 0.9 |  |  |  | 
3 | CC[C@H](C)[C@H](NC(=O)[C@@H](CCCNC(=N)N)NC(=O)[C@H](CCCNC(=N)N)NC(=O)[C@@H]1CCCN1C(=O)[C@@H]1CCCN1C(=O)[C@H](CCCNC(=N)N)NC(=O)[C@@H]1CCCN1C(=O)[C@H](CCCNC(=N)N)NC(=O)[C@@H]1CCCN1C(=O)[C@H](CC(C)C)NC(=O)[C@H](Cc1ccc(O)cc1)NC(=O)[C@@H]1CCCN1C(=O)[C@@H]1CCCN1C(=O)[C@H](CCCCN)NC(=O)[C@H](CC(=O)O)NC(=O)[C@@H](N)C(C)C)C(=O)N[C@@H](Cc1ccc(O)cc1)C(=O)N[C@@H](CC(N)=O)C(=O)N[C@H](CCCNC(=N)N)C(N)=O [Onc112, reference compound] (H-VDKPPYLPRPRPPR[dR]IYN[dR]-NH2; N-terminus assumed) | almost completely | showed activity against resistant E. coli bacteria comparable to that demonstrated in the wild type |  |  |  |  | red pseudocolor reporter induction was observed |  | > 20 | > 50 | > 50 | > 50
